From patent US20180149606A1, “XENON BASED DRUG PROTEIN BINDING ASSAY” (priority 2016, published 2018)

Legend:
albumin [1] = target: T1, albumin (Bos taurus, UniProt P02769); assay: Xenon T2 relaxation measurement of drug binding to albumin (Tables 1 and 2); set-up: T2: unit not given here; conditions: 10 μM albumin, 9.4 T
Source text: Hyperpolarized ^129Xe was generated in a rubidium cell hyperpolarizer, and bubbled into the solution.
Hyperpolarized ^129Xe was magnetized in a rubidium cell hyperpolarizer, and bubbled into the solution.
Target sequence in this assay (P02769 25-607): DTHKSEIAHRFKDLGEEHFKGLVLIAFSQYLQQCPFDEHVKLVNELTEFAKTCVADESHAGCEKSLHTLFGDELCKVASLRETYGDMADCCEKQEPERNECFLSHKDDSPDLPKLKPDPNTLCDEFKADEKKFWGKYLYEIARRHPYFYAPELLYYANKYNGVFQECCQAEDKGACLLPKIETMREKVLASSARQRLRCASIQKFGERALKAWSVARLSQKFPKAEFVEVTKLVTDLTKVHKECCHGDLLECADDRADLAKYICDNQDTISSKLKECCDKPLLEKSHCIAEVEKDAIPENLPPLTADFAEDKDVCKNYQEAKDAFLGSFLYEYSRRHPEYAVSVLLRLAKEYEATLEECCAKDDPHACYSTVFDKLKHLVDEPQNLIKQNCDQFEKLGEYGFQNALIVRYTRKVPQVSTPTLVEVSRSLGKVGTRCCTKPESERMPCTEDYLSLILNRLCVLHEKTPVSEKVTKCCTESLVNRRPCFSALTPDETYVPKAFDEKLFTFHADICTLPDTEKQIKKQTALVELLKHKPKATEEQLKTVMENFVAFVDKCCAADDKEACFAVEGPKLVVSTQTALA

albumin [2] = target: T1, albumin; set-up: other: bovine serum albumin whenever possible, close to 25 degrees Celsius; highest; conditions: bovine serum albumin whenever possible, close to 25 degrees Celsius; highest affinity site; cited from earlier work
bovine serum albumin = bovine serum albumin (Bos taurus, UniProt P02769); assay: Drug titration of xenon T2 in 10 μM fatty acid free bovine serum albumin; assay type: binding; conditions: for effect on the xenon T2 of albumin: titration up to 1 mM drug, 9.4 T, 25 degrees Celsius
Experimental: The following experiments were performed with fatty acid free bovine serum albumin. It is important to note whether the albumin one uses contains fatty acids both because the fats will alter the binding affinity of a drug and also because they alter the relaxivity of albumin. The drug titrations were performed by preparing a 10 μM solution of bovine serum albumin into which aliquots of high concentration drug solutions were added. Most drugs, as well as all protein solutions, were dissolved in 1×PBS buffer. It is important to keep the pH of the solution constant when studying albumin because that protein has many different pH dependent conformations.
All solutions were made by dissolving the drugs in 1×PBS, with the exception of the tenoxicam solution. The T2 times of solutions containing high concentrations of drugs were measured. […] For the tenoxicam solution, about 400 μL of DMSO was added to a 10 mL solution of 1×PBS.
T2 times were measured using a standard CPMG pulse sequence with 100 ms long echo spacings. All experiments were performed at 9.4 Tesla using hyperpolarized xenon. This hyperpolarized xenon was prepared using a homebuilt spin exchange optical pumping based polarizer. The protein solution was attached to the polarizer's flow system and the pressurized to 60 psi. Xenon was bubbled into the protein solution at a rate of about 0.1 standard liters per minute. The gas mixture used contained 2% xenon, with the rest of the gases being helium and nitrogen. All experiments were performed at 25 degrees Celsius.
All protein solutions required the addition of an antifoaming agent in order to prevent the xenon from forcing the sample out of the NMR tube. […] 1-octanol was used as the antifoaming agent in this experiment. The concentration of 1-octanol used was 5 μL of alcohol per 10 mL of solution.

Sequence of bovine serum albumin (P02769 25-607): as above

Cn1c(=O)c2c(ncn2C)n(C)c1=O [Caffeine, caffeine]
Xenon relaxation time, T2 (albumin [1]; 16 μM caffeine): 0.54 ± 0.04 s | Xenon relaxation time, T2 (albumin [1]; 43 μM caffeine): 0.47 ± 0.04 s | Xenon relaxation time, T2 (albumin [1]; 56 μM caffeine): 0.63 ± 0.04 s | Xenon relaxation time, T2 (albumin [1]; 100 μM caffeine): 0.69 ± 0.03 s | Xenon relaxation time, T2 (albumin [1]; 500 μM caffeine): 0.51 ± 0.03 s | Xenon relaxation time, T2 (albumin [1]; 5000 μM caffeine): 0.67 ± 0.04 s | Xenon relaxation time, T2 (albumin [1]; 80000 μM caffeine): 1.07 ± 0.03 s | Highest Binding Affinity log10(Ka) (albumin [2]): 4.3

Cc1onc(-c2c(F)cccc2Cl)c1C(=O)N[C@@H]1C(=O)N2[C@@H]1SC(C)(C)[C@@H]2C(=O)O [Flucloxacillin, flucloxacillin]
effect on the xenon T2 of albumin, repeated titration (bovine serum albumin; higher concentrations of drug (beyond 1 mM), 10 μM BSA): no effect | effect on the xenon T2 of albumin (bovine serum albumin; 10 μM BSA): much weaker effect | T2 (albumin [1]; 70 μM flucloxacillin): 0.91 ± 0.04 | T2 (albumin [1]; 200 μM flucloxacillin): 0.99 ± 0.04 | T2 (albumin [1]; 250 μM flucloxacillin): 1.53 ± 0.05 | T2 (albumin [1]; 450 μM flucloxacillin): 0.97 ± 0.03 | T2 (albumin [1]; 2000 μM flucloxacillin): 0.73 ± 0.04 | Highest Binding Affinity log10(Ka) (albumin [2]): 4.6

CCCCCCCC/C=C\CCCCCCCC(=O)[O-].[Na+] [Sodium Oleate, sodium oleate]
increase of xenon T2 (bovine serum albumin; three times as much sodium oleate as albumin, 10 μM albumin): 3 s | effect on the xenon T2 of albumin (bovine serum albumin; 10 μM BSA): increased | Highest Binding Affinity log10(Ka) (albumin [2]): 8.0

CN1C(C(=O)Nc2ccccn2)=C(O)c2sccc2S1(=O)=O [Tenoxicam, tenoxicam]
Highest Binding Affinity log10(Ka) (albumin [2]): 5.4
